Laboratory results published in US9868722B2, “Monocyclic pyrimidine/pyridine compounds as inhibitors of P97 complex” (Cleave Biosciences, Inc., priority 2013, dated 2018).
Where two headings read alike, the source gives them in different places.

Columns and labels:
p97 = p97 (Homo sapiens, UniProt P55072); assay: P97 ATPase biochemical assay (ADP Glo)
Method: The ATPase assay is performed according the following protocol: Purified enzyme (20 nM p97), substrate (20 μM ATP) and a dose titration of compounds are mixed in buffer (50 mM TRIS pH 7.5, 20 mM MgCl2, 0.02% TX-100, 1 mM DTT, 0.2% (v/v) glycerol) and incubated at 37° C. for 15 minutes. The reaction is terminated and the level of product generated is measured using the ADP Glo Assay Kit (Promega, Madison Wis.). Plotting product generated versus compound concentration and using a four-parameter fit model generates an IC50 value for each compounds.
The p97 assay is an initial screening assay used to determine inhibitory activity of the monocyclic pyrimidine compounds of the invention against the p97 complex. As discussed above, inhibition of activity of the p97 proteosome complex can enable apoptosis and cause elimination of neoplastic cells (cancer cells). The method follows that of Christianson in Nat. Cell Biol., (2011) 14:93.
Assay Buffer is a mixture of 50 mM TRIS pH 7.5, 20 mM MgCl2, 0.02% TX-100, 1 mM DTT and 0.2% (v/v) Glycerol. The well plate is Platetype: Corning 3674, 384w plate. The identification kit is an ADP glo kit (Promega): stop buffer, detection reagent.
Serial dilute compound in DMSO in a 1:3.33-fold 10 point serial dilution.
0.5 μL compound serial diluted in DMSO (Final Conc. 10%)
2 μL ATP (Final Conc.=20 uM, diluted in assay buffer)
2.5 μL p97 (Final Conc.=20 nM, diluted in assay buffer)
Incubate at 37 degC for 15 min.
Add 5 μL of stop buffer, incubate at RT for 40 min.
Add 10 μL of detection reagent, incubate at RT for 30 min.
Read luminescence on Envision plate reader. • Upon obtaining the data from the luminescence reading, the data may be analyzed as follows:
Normalize luminescence data using no enzyme (full inhibition) and no compound (no inhibition) controls. Plot normalized luminescence data against log-transformed concentration values and fit to a sigmoidal curve to determine IC50 values (done in Collaborative Drug Discovery software).
The results are reported on the following Table for Examples A-EE and the E1-E4 compounds as 50 percent Inhibitory concentration at candidate doses of less than 30 nM, less than 100 nM, less than 300 nM and less than 1000 nM for the p97 inhibition assay.

A549 cells = assay: Cultured cancer cell viability assay (cell titer glo, A549 CTG); format: cell-based; conditions: Homo sapiens
Excerpt: Anti-tumor effects are monitored in cultured cancer cells after several days of compound treatment. The cell titer glo assay (Promega) measures the amount of ATP present as a proxy for cellular viability. Cellular counting is done using high-content microscopy followed by image analysis. A hanging drop 3D-culture system (3D Biomatrix) is used followed by cell titer glo to measure growth in a tumor-like environment.
The cellular assay provides information about the anti-neoplastic activity of the compounds of the invention. The compounds are tested against cultured cancer cells to determine whether or not the compounds of the invention are capable of intersecting with cancer cells to minimize or eliminate such cells. The assay involves establishing colonies of such cells and then treating them with the test compound under specified conditions and analysis regime to determine results.
(§1) Plate 25 μL of A549 cells in every well of 384-well plate using multidrop.
One (1) white plate for viability at 500 cells/well.
Serial dilute compounds with a 10 point 2-fold serial dilution in DMSO to make 250× stock compound solution
Dilute compounds 1:125 in cell culture media to make a 2× solution Add 25 μl of dilution compounds to cell plates in well duplicates
Put cells back in incubator (6 hr incubation for black plates, 72 hr incubation for white plates).
Thaw an aliquot of frozen cell titer glo (Promega G7572) at room temperature.
Add 45 mL of NaCl/PBS solution to 5 ml of cell titer glo (10×).
Remove white plates from incubator, leave at room temp for 30 minutes.
Add 25 μl of diluted cell titer glo to each well.
Shake plate for >1 minute.
Incubate plate for >5 minutes to stabilize luminescence. • Luminescence is stable for up to 3 hours.
Read luminescence on plate reader
The results are reported on the following Table I for Examples A-EE and the E1-E4 compounds as 50 percent Inhibitory concentration at candidate doses of less than 1 μM, less than 3 μM and less than 10 μM for both of the K48 antibody and the p53 (CTG) antibody assays

[1] = test system: K48 poly-Ubiquitin accumulation in A549 cells; assay: A549 K48 poly-ubiquitin accumulation immunofluorescence assay; format: cell-based; conditions: Homo sapiens
Method: Image-analysis is used to generate quantitative data from these assays that can be fit to a four-parameter sigmoid curve to derive IC50 values. Substrates of the ubiquitin-proteasome system, such as p53, are monitored after tumor cell lines are incubated with compounds for several hours. Accumulation of these proteins indicates an inhibition of proteasome-mediated degradation. Accumulation of lysine-48 chain linkage of poly-ubiquitin is also monitored by immunofluorescence as an indicator of ubiquitin-proteasome system inhibition. Both LC3 and SQSTM1 are mediators of autophagy. The localization and amounts of these proteins are monitored by immunofluorescence and report on the activity and inhibition of autophagy in response to p97 inhibition.
as §1
Two (2) black plates for IF at 2500 cells/well
Serial dilute compounds with a 10 point 2-fold serial dilution in DMSO to make 250× stock compound solution Dilute compounds 1:125 in cell culture media to make a 2× solution Add 25 μl of dilution compounds to cell plates in well duplicates Put cells back in incubator (6 hr incubation for black plates, 72 hr incubation for white plates).
Incubate cells in black plates with compound at 37 degC for 6 hrs. add 15 μL of 16% Paraformaldehyde (PFA) directly into media of each well, incubate at room temp for 5 min, flick plate and wash in 50 μL of PBS block in 50 μL of Blocking Buffer for 30 minutes (can go up to several hours) Blocking buffer: 1×PBS, 1% BSA, 0.3% Triton-X100, Hoechst (1:10,000) incubate in 25 μL of primary antibody in blocking buffer at 4 degC over night […]
Secondary Antibodies: • AlexaFluor488 Goat anti-Rabbit 1:2,000 (Life Tech A11008) • AlexaFluor555 Goat anti-Mouse 1:2,000 (Life Tech A21422) incubate in 25 μl of secondary antibody (1:2,000) in blocking buffer for 1-2 hrs at room temp (alexafluor488-anti-Rabbit/alexafluor555-anti-Mouse) Image plates in high content microscope with 405 nm, 488 nm and 555 nm filters Nuclear counts and cellular intensities of each markers are measured using Hoechst as a nuclear marker with an automated image analysis protocol using Matlab software (Math Works) The results are reported on the following Table I for Examples A-EE and the E1-E4 compounds as 50 percent Inhibitory concentration at candidate doses of less than 1 μM, less than 3 μM and less than 10 μM for both of the K48 antibody and the p53 (CTG) antibody assays

[2] = 20 nM p97, 20 uM ATP, 37 degC 15 min
[3] = A549 cells, 72 hr incubation, cell titer glo, read-out: A549 CTG IC50
[4] = A549 cells, 6 hr incubation, K48-Ub antibody, read-out: A549 K48 IC50

Chain of p97 (P55072 whole entry): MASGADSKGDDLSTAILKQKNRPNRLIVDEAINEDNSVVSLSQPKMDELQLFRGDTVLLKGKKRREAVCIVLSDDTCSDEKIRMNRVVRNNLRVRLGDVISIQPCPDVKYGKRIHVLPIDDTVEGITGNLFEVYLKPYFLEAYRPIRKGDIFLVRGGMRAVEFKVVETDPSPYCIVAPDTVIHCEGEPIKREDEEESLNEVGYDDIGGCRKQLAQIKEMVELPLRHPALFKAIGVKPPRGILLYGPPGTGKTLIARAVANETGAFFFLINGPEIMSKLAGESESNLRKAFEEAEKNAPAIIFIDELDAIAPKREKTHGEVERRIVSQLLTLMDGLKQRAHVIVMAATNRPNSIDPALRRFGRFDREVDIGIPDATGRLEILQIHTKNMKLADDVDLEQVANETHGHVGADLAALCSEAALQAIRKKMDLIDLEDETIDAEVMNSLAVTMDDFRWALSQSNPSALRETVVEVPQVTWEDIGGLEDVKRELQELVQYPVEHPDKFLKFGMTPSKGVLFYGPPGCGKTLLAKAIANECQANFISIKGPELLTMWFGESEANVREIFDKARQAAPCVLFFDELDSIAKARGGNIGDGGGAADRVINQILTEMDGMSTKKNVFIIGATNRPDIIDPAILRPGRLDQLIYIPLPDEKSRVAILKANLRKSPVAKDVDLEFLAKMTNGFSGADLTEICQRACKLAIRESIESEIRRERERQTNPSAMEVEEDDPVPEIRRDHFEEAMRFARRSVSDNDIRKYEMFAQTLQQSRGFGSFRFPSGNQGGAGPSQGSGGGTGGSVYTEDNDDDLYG

| Structure (SMILES) | IC50 (p97; [2]) [µM] | IC50 (A549 cells; [3]) [µM] | IC50 [1, 4] [µM] | IC50 (p97; Table II, preliminary assays) [µM] | IC50 (A549 cells; A549, Table II, preliminary assays, read-out: Cell Titre Glow Assay IC50) [µM] | IC50 ([1]; A549, Table II, preliminary assays, read-out: K48 poly-Ubiquitin Accumulation) [µM] |
| --- | --- | --- | --- | --- | --- | --- |
| Cc1nc(-n2ncc3c(C(N)=O)cccc32)nc(NCc2ccccc2)c1C(C)C [Example 11, 1-(4-(benzylamino)-5-isopropyl-6-methylpyrimidin-2-yl)-1H-indazole-4-carboxamide] | < 0.3 | < 3 | < 3 | – | – | – |
| Cc1cc2c(C(N)=O)cccc2n1-c1ncc(C(C)C)c(NCc2ccccc2)n1 [Example 12, 1-(4-(benzylamino)-5-(propan-2-yl)pyrimidin-2-yl)-2-methyl-1H-indole-4-carboxamide] | < 0.03 | < 1 | < 3 | 0.009 | 0.73 | 0.64 |
| Cc1cc2c(C(N)=O)cccc2n1-c1ncc(N(C)C)c(NCc2ccccc2)n1 [Example 13, 1-(4-(benzylamino)-5-(dimethylamino)pyrimidin-2-yl)-2-methyl-1H-indole-4-carboxamide] | < 0.03 | < 3 | < 1 | – | – | – |
| Cc1nc(-n2c(C)cc3c(C(N)=O)cccc32)nc(NCc2ccccc2)c1N(C)C [Example 15, 1-[4-(benzylamino)-5-(dimethylamino)-6-methylpyrimidin-2-yl]-2-methyl-1H-indole-4-carboxamide] | < 0.03 | < 3 | < 3 | – | – | – |
| COCc1cnc(-n2c(C)cc3c(C(N)=O)cccc32)nc1NCc1ccccc1 [Example 18, 1-[4-(benzylamino)-5-(methoxymethyl)pyrimidin-2-yl]-2-methyl-1H-indole-4-carboxamide] | < 0.3 | < 10 | < 3 | – | – | – |
| Cc1cc2c(C(N)=O)cccc2n1-c1ncc(S(C)(=O)=O)c(NCc2ccccc2)n1 [Example 19, 1-[4-(benzylamino)-5-(methylsulfonyl)pyrimidin-2-yl]-2-methyl-1H-indole-4-carboxamide] | < 0.1 | < 3 | < 3 | – | – | – |
| CC(=O)NCc1cnc(-n2c(C)cc3c(C(N)=O)cccc32)nc1NCc1ccccc1 [Example 24, 1-[4-(benzylamino)-5-(acetamidomethyl)pyrimidin-2-yl]-2-methyl-1H-indole-4-carboxamide] | < 0.3 | < 10 | < 10 | – | – | – |
| Cc1cc2c(C(N)=O)cccc2n1-c1ncc(OC(C)C)c(NCc2ccccc2)n1 [Example 26, 1-[4-(benzylamino)-5-(propan-2-yloxy)pyrimidin-2-yl]-2-methyl-1H-indole-4-carboxamide] | < 0.1 | < 3 | < 3 | – | – | – |

Results, then the compound that gave them:

| IC50 (p97; [2]) [µM] | IC50 (A549 cells; [3]) [µM] | IC50 [1, 4] [µM] | IC50 (p97; Table II, preliminary assays) [µM] | IC50 (A549 cells; A549, Table II, preliminary assays, read-out: Cell Titre Glow Assay IC50) [µM] | IC50 ([1]; A549, Table II, preliminary assays, read-out: K48 poly-Ubiquitin Accumulation) [µM] | Structure (SMILES) |
| --- | --- | --- | --- | --- | --- | --- |
| < 0.03 | < 3 | < 3 | – | – | – | CCOc1cnc(-n2c(C)cc3c(C(N)=O)cccc32)nc1NCc1ccccc1 [Example 27, 1-[4-(benzylamino)-5-ethoxypyrimidin-2-yl]-2-methyl-1H-indole-4-carboxamide] |
| < 0.1 | < 10 | < 3 | – | – | – | COCCOc1cnc(-n2c(C)cc3c(C(N)=O)cccc32)nc1NCc1ccccc1 [Example 28, 1-[4-(benzylamino)-5-(2-methoxyethoxy)pyrimidin-2-yl]-2-methyl-1H-indole-4-carboxamide] |
| < 0.1 | < 3 | < 1 | – | – | – | COc1cnc(-n2c(CN)cc3c(C(N)=O)cccc32)nc1NCc1ccccc1 [Example 29, 2-(aminomethyl)-1-(4-(benzylamino)-5-methoxypyrimidin-2-yl)-1H-indole-4-carboxamide] |
| < 0.1 | < 3 | < 3 | – | – | – | CC(C)c1cnc(-n2c(CN)cc3c(C(N)=O)cccc32)nc1NCc1ccccc1 [Example 30, 2-(aminomethyl)-1-[4-(benzylamino)-5-(propan-2-yl)pyrimidin-2-yl]-1H-indole-4-carboxamide] |
| < 0.03 | < 10 | < 3 | – | – | – | COc1nc(-n2c(C)cc3c(C(N)=O)cccc32)nc(NCc2ccccc2)c1C [Example 33, 1-(4-(benzylamino)-6-methoxy-5-methylpyrimidin-2-yl)-2-methyl-1H-indole-4-carboxamide] |
